{"source": "patent EP2649091B1", "about": "“IMMUNE RESTRICTED PEPTIDES WITH INCREASED EFFICACY” (Stichting Het Nederlands Kanker Instituut, priority 2010, dated 2012)", "key": {"[1]": {"tested_on": "CD8+ T cells with SVYDFFVWL (Melanoma, TRP-2, residues 180-188) specific T cell receptor", "test": "T cell activation time course assay, IFNγ production by FACS, TRP-2 epitope", "assay_type": "cell-based", "conditions": "48H, peptide 50 picomolar", "method": "(§1) FACS was employed to obtain results.\nAlso for this epitope, an IFNγ expression time-course experiment was performed. The two distinguishing time points 24H and 48H were taken along at peptide concentrations of 5·10^3 pM, 50 pM and 0.5 pM."}, "[2]": {"tested_on": "T cell line specific for LLFGLALIEV", "test": "T cell activation, FACS based interferon-gamma production assay, Mage-C2 LLFGLALIEV", "text": "as §1\nT cell activation was quantified using the FACS based interferon-gamma production assay as materials and methods section. Table 10 HLA binding and T cell activation of modified Melanoma-associated protein C2 (pp-qq) epitopes used in vaccination studies."}, "[3]": {"tested_on": "LLFGLALIEV-specific CD8+ T cells", "test": "Mouse vaccination study, tetramer analysis of blood, LLFGLALIEV", "assay_type": "in vivo", "conditions": "mice vaccinated with 100 µg peptide with IFA and CpG, all times after day one, versus LLFGLALIEV vaccinated mice", "text": "(§2) Three mouse vaccination studies were done using three different wild-type epitopes. In all cases, mice were vaccinated with the peptide supplemented with incomplete freunds ajuvant (IFA) and CpG. Analysis was done by analyzing blood samples with tetramers loaded with wild-type peptide in all cases.\n(§3) This was done for both groups of mice."}, "[4]": {"tested_on": "LLFGLALIEV-specific CD8+ T cells", "test": "Mouse vaccination study, LLFGLALIEV tetramer analysis of blood", "assay_type": "in vivo", "conditions": "mice vaccinated with 100 µg peptide with IFA and CpG; compared with LLFGLALIEV vaccinated mice, at all times after day one", "text": "as §2, §3"}, "HLA-A0201": {"target": "HLA-A0201 (Homo sapiens, UniProt P04439, D140Y/D185E/D98H/E176V/E277Q/G131W/G231S/I119V/I121R/I166T/I218V/L300P/L318F/N151K/N90K/P208A/P217A/Q86G/Q94H/R138H/R169H/T345S)", "assay_type": "binding"}, "[5]": {"tested_on": "CD8+ T cells from Influenza A positive donors sorted using tetramers containing HLA A2.1::[…]", "assay_type": "cell-based"}, "[6]": {"tested_on": "CD8+ T cells from Influenza A positive donors sorted using tetramers containing HLA A2.1::[…]", "assay_type": "cell-based", "remark": "listed apart in the source"}, "[7]": {"tested_on": "HLA-A2::Mart-1(26-35) reactive T cells stimulated by T2 cells", "test": "T cell activation time course assay, IFNγ production (FACS), Mart-1 epitope", "assay_type": "cell-based", "conditions": "for % CD8+ T cells producing IFN-γ 0H / Geometric mean IFN-γ in arbitrary fluorescence units 0H: time point 0H (basal); for % CD8+ T cells producing IFN-γ 2H / Geometric mean IFN-γ in arbitrary fluorescence units 2H: time point 2H; for % CD8+ T cells producing IFN-γ 4H / Geometric mean IFN-γ in arbitrary fluorescence units 4H: time point 4H; for % CD8+ T cells producing IFN-γ 24H / Geometric mean IFN-γ in arbitrary fluorescence units 24H: time point 24H; for % CD8+ T cells producing IFN-γ 24H / Geometric mean IFN-γ in arbitrary fluorescence units 24H / % CD8+ T cells producing IFN-γ 48H / Geometric mean IFN-γ in arbitrary fluorescence units 48H: free peptide washed away; for % CD8+ T cells producing IFN-γ 48H / Geometric mean IFN-γ in arbitrary fluorescence units 48H: time point 48H"}, "[8]": {"tested_on": "[…]-specific CD8+ T cells", "test": "Mouse vaccination study, tetramer analysis of blood, […]", "assay_type": "in vivo", "conditions": "mice vaccinated with 5 µg peptide with IFA and CpG, booster at day 97, several timepoints, versus […] vaccinated mice", "method": "as §2\n(§4) Two groups of three mice were vaccinated with 5 µg of either […] or [am-phg][NVA]AGIGILT[PRG]. At day 97, mice were administred a second dose (booster). At several timepoints blood was taken and tested for […]-specific CD8+ T cells using tetramers loaded with […]. This was done for both groups of mice."}, "[9]": {"tested_on": "[…]-specific CD8+ T cells", "test": "Mouse vaccination study, […] tetramer analysis of blood", "assay_type": "in vivo", "conditions": "mice vaccinated with 5 µg peptide with IFA and CpG, booster at day 97; compared with […] vaccinated mice, at all times", "method": "as §2, §4"}}, "note": "Several values for one entry are separate records, joined by “and”; a condition that tells them apart may be missing. Identical values can stand only once. Where no end group is shown, it is not given here. am‑phg = not defined here; PRG = not defined here"}
{"substance": "[CSME][2-AOC]YDFFVWL", "values": [{"measurement": "% CD8+ T cells producing IFN-γ", "setting": "[1]", "value": "significantly above background level"}]}
{"substance": "[PHG][2-AOC]FGLALIEV [listing 1 of 2 here]", "values": [{"measurement": "% Positive TCR recognition % TCR", "setting": "[2]", "value": 13.7, "unit": "%"}, {"measurement": "Geometric mean in arbitrary fluorescence units Geo TCR", "setting": "[2]", "value": "108 arbitrary fluorescence units"}, {"measurement": "LLFGLALIEV-specific CD8+ T cells (specific T cell numbers)", "setting": "[3]", "value": "higher"}]}
{"substance": "[PHG][2-AOC]FGLALIEV [listing 2 of 2 here]", "values": [{"measurement": "LLFGLALIEV-specific CD8+ T cells in blood", "setting": "[4]", "value": "specific T cell numbers were higher"}]}
{"substance": "[am-phg][2-AOC]YDFFVWL ({am‑phg-2‑AOC}-YDFFVWL; reading uncertain; also: printed as [am-phg][2-AOC]YDFFVWL)", "values": [{"measurement": "% CD8+ T cells producing IFN-γ", "setting": "[1]", "value": "significantly above background level"}]}
{"substance": "[am-phg][CpALA]LGFVFTL", "values": [{"measurement": "% inhibition at T=4H and T=24H FP 24h", "setting": "HLA-A0201", "value": 91, "unit": "%"}, {"measurement": "IC50 Ratio", "setting": "HLA-A0201", "value": 2}, {"measurement": "% CD8+ T cells producing IFN-γ % IFN", "setting": "[5]", "value": 2.2, "unit": "%"}, {"measurement": "Geometric mean IFN-γ in arbitrary fluorescence units Geo IFN", "setting": "[5]", "value": "259 arbitrary fluorescence units"}, {"measurement": "% Positive TCR recognition % TCR", "setting": "[6]", "value": 3.17, "unit": "%"}, {"measurement": "Geometric mean IFN in arbitrary fluorescence units Geo TCR", "setting": "[6]", "value": "150 arbitrary fluorescence units"}]}
{"substance": "[am-phg][CpALA]LGFV[4-FPHE]TL", "values": [{"measurement": "% inhibition at T=4H and T=24H FP 4h", "setting": "HLA-A0201", "value": 96, "unit": "%"}, {"measurement": "% inhibition at T=4H and T=24H FP 24h", "setting": "HLA-A0201", "value": 96, "unit": "%"}, {"measurement": "IC50 Ratio", "setting": "HLA-A0201", "value": 5}, {"measurement": "% CD8+ T cells producing IFN-γ % IFN", "setting": "[5]", "value": 2.8, "unit": "%"}, {"measurement": "Geometric mean IFN-γ in arbitrary fluorescence units Geo IFN", "setting": "[5]", "value": "243 arbitrary fluorescence units"}, {"measurement": "% Positive TCR recognition % TCR", "setting": "[6]", "value": 3.26, "unit": "%"}, {"measurement": "Geometric mean IFN in arbitrary fluorescence units Geo TCR", "setting": "[6]", "value": "208 arbitrary fluorescence units"}]}
{"substance": "[am-phg][NLE]LGFV[4-FPHE]TL", "values": [{"measurement": "% inhibition at T=4H and T=24H FP 4h", "setting": "HLA-A0201", "value": 82, "unit": "%"}, {"measurement": "% inhibition at T=4H and T=24H FP 24h", "setting": "HLA-A0201", "value": 83, "unit": "%"}, {"measurement": "IC50 Ratio", "setting": "HLA-A0201", "value": 3}, {"measurement": "% CD8+ T cells producing IFN-γ % IFN", "setting": "[5]", "value": 3.0, "unit": "%"}, {"measurement": "Geometric mean IFN-γ in arbitrary fluorescence units Geo IFN", "setting": "[5]", "value": "221 arbitrary fluorescence units"}, {"measurement": "% Positive TCR recognition % TCR", "setting": "[6]", "value": 3.40, "unit": "%"}, {"measurement": "Geometric mean IFN in arbitrary fluorescence units Geo TCR", "setting": "[6]", "value": "302 arbitrary fluorescence units"}]}
{"substance": "[am-phg][NVA]AGIGILT[PRG]", "values": [{"measurement": "% inhibition at T=4H and T=24H FP 4h", "setting": "HLA-A0201", "value": 67, "unit": "%"}, {"measurement": "% inhibition at T=4H and T=24H FP 24h", "setting": "HLA-A0201", "value": 64, "unit": "%"}, {"measurement": "IC50 Ratio", "setting": "HLA-A0201", "value": "8.3 and 8"}, {"measurement": "% CD8+ T cells producing IFN-γ 0H", "setting": "[7]; peptide 0.5 pM", "value": 0, "unit": "%"}, {"measurement": "Geometric mean IFN-γ in arbitrary fluorescence units 0H", "setting": "[7]; peptide 0.5 pM", "value": "141 arbitrary fluorescence units"}, {"measurement": "% CD8+ T cells producing IFN-γ 2H", "setting": "[7]; peptide 0.5 pM", "value": 25, "unit": "%"}, {"measurement": "Geometric mean IFN-γ in arbitrary fluorescence units 2H", "setting": "[7]; peptide 0.5 pM", "value": "197 arbitrary fluorescence units"}, {"measurement": "% CD8+ T cells producing IFN-γ 4H", "setting": "[7]; peptide 0.5 pM", "value": 30, "unit": "%"}, {"measurement": "Geometric mean IFN-γ in arbitrary fluorescence units 4H", "setting": "[7]; peptide 0.5 pM", "value": "342 arbitrary fluorescence units"}, {"measurement": "% CD8+ T cells producing IFN-γ 24H", "setting": "[7]; peptide 0.5 pM", "value": 16, "unit": "%"}, {"measurement": "Geometric mean IFN-γ in arbitrary fluorescence units 24H", "setting": "[7]; peptide 0.5 pM", "value": "165 arbitrary fluorescence units"}, {"measurement": "% CD8+ T cells producing IFN-γ 48H", "setting": "[7]; peptide 0.5 pM", "value": 3, "unit": "%"}, {"measurement": "Geometric mean IFN-γ in arbitrary fluorescence units 48H", "setting": "[7]; peptide 0.5 pM", "value": "105 arbitrary fluorescence units"}, {"measurement": "% CD8+ T cells producing IFN-γ 0H", "setting": "[7]; peptide 50 pM", "value": 0, "unit": "%"}, {"measurement": "Geometric mean IFN-γ in arbitrary fluorescence units 0H", "setting": "[7]; peptide 50 pM", "value": "110 arbitrary fluorescence units"}, {"measurement": "% CD8+ T cells producing IFN-γ 2H", "setting": "[7]; peptide 50 pM", "value": 28, "unit": "%"}, {"measurement": "Geometric mean IFN-γ in arbitrary fluorescence units 2H", "setting": "[7]; peptide 50 pM", "value": "252 arbitrary fluorescence units"}, {"measurement": "% CD8+ T cells producing IFN-γ 4H", "setting": "[7]; peptide 50 pM", "value": 32, "unit": "%"}, {"measurement": "Geometric mean IFN-γ in arbitrary fluorescence units 4H", "setting": "[7]; peptide 50 pM", "value": "550 arbitrary fluorescence units"}, {"measurement": "% CD8+ T cells producing IFN-γ 24H", "setting": "[7]; peptide 50 pM", "value": 28, "unit": "%"}, {"measurement": "Geometric mean IFN-γ in arbitrary fluorescence units 24H", "setting": "[7]; peptide 50 pM", "value": "344 arbitrary fluorescence units"}, {"measurement": "% CD8+ T cells producing IFN-γ 48H", "setting": "[7]; peptide 50 pM", "value": 18, "unit": "%"}, {"measurement": "Geometric mean IFN-γ in arbitrary fluorescence units 48H", "setting": "[7]; peptide 50 pM", "value": "222 arbitrary fluorescence units"}, {"measurement": "[…]-specific CD8+ T cells (specific T cell numbers)", "setting": "[8]", "value": "higher"}]}
{"substance": "[am-phg][NVA]AGIGILT[PRG] ({am‑phg-NVA}-AGIGILT-{PRG}; reading uncertain; also: printed as [am-phg][NVA]AGIGILT[PRG])", "values": [{"measurement": "[…]-specific CD8+ T cells in blood", "setting": "[9]", "value": "specific T cell numbers were higher"}]}
{"substance": "[am-phg][NVA]LGFV[4-FPHE]TL", "values": [{"measurement": "% inhibition at T=4H and T=24H FP 24h", "setting": "HLA-A0201", "value": 97, "unit": "%"}, {"measurement": "IC50 Ratio", "setting": "HLA-A0201", "value": 2}, {"measurement": "% CD8+ T cells producing IFN-γ % IFN", "setting": "[5]", "value": 3.4, "unit": "%"}, {"measurement": "Geometric mean IFN-γ in arbitrary fluorescence units Geo IFN", "setting": "[5]", "value": "242 arbitrary fluorescence units"}, {"measurement": "% Positive TCR recognition % TCR", "setting": "[6]", "value": 3.54, "unit": "%"}, {"measurement": "Geometric mean IFN in arbitrary fluorescence units Geo TCR", "setting": "[6]", "value": "143 arbitrary fluorescence units"}]}
{"substance": "[am-phg][NVA]YDFFVWL (N-terminal am-phg and NVA)", "values": [{"measurement": "% CD8+ T cells producing IFN-γ", "setting": "[1]", "value": "significantly above background level"}]}
